We go through four compounds from paper PMC12305494, “Discovery of PXR Antagonist MI891 and PXR Degrader MI1013 and Their Roles in Hepatic Gene Regulation” (Journal of Medicinal Chemistry, 2025).

Usually IC50 stands for the point on the concentration scale where inhibition reaches its midpoint. What is called EC50 is the concentration that produces a half-maximal response. High values mean weaker potency, low ones greater potency. For orientation: Ki means a dissociation constant, usually derived from enzyme kinetics or from competition with a known ligand.

Numbering of substitutions follows the chain as printed. Where two headings read alike, the source gives them in different places.

A short description of data set [1]: Plasma stability, human plasma. The data set is classed as in vitro ADME. To be noted: up to 120 min, read-out: Plasma stability, t1/2 (min), human.
A short description of data set [2]: Microsomal stability, human microsomes. The class given is in vitro ADME. To be noted: liver microsomes; for half-life at 5 μM: 0.5 mg/mL human microsomes, up to 45 min, read-out: Microsomal stability, t1/2 (min), human; for microsomal CLint at 5 μM: human microsomes, read-out: Microsomal clearance CLint (μl/min/mg), human. As to the method:
(§1) The protocols and reagents for the plasma protein binding assay and metabolic stability testing in human and mouse liver microsomes are detailed in our previous report. […] The stability of compounds was tested in human and mouse microsomes (ThermoFisher Scientific). Compounds were tested in triplicate with or without NADPH wells as a negative control for cytochrome P450 metabolism. […] Each assay included a substrate with known activity as a positive control. Time points were analyzed by LC/MS/MS. The peak area for the parent compound is compared to the time zero sample in order to assess the amount of remaining compound.
(Liver microsomes are vesicles of endoplasmic reticulum, rich in cytochrome P450 enzymes.)

Data set [3] in a line: Plasma stability, mouse plasma. The class given is in vitro ADME. To be noted: up to 120 min, read-out: Plasma stability, t1/2 (min), mouse. As to the method: The protocols and reagents for the plasma protein binding assay and metabolic stability testing in human and mouse liver microsomes are detailed in our previous report. Briefly, metabolic stability of compounds was assessed at a single concentration (5 μM) at t = 0, 10, 30, and at t = 45 min. The stability of compounds was tested in human and mouse microsomes (ThermoFisher Scientific). Compounds were tested in triplicate with or without NADPH wells as a negative control for cytochrome P450 metabolism. In addition to hepatic metabolism, compounds were also subjected to degradation/modification by enzymes in human (VWR International) and mouse (Biomedica, CZ) plasma for t = 0, 30, 60, and at t = 120 min. Each assay included a substrate with known activity as a positive control. Time points were analyzed by LC/MS/MS. The peak area for the parent compound is compared to the time zero sample in order to assess the amount of remaining compound.

The target of data set [4] is T1, PXR (Homo sapiens, UniProt O75469).
T1 sequence (O75469 1-434): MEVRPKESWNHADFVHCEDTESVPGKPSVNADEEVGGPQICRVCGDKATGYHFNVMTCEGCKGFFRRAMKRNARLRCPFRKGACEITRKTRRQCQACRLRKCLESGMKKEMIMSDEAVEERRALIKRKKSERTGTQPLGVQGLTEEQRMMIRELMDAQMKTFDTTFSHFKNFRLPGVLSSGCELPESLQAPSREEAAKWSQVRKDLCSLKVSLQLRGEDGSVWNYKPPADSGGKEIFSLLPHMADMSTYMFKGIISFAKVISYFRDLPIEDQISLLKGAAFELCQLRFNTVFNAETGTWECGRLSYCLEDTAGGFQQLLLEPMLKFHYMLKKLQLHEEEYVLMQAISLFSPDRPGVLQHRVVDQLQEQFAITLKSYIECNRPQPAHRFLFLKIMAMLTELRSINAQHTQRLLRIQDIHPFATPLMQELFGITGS
Description: cell-based. As to conditions: PXR antagonism: PXR inhibition (IC50, μM), antagonist mode with 10 μM rifampicin; mean ± SD, n = 3.

Data set [5] concerns the target T2, human CAR LBD (Homo sapiens, UniProt Q14994).
T2 construct: constructs encoding helices 3–12 and helix 1 of human CAR LBD; expressed in transfected cells; host or cells: HepG2
T2 sequence (Q14994 103-150 isoform Q14994-2 limits assumed): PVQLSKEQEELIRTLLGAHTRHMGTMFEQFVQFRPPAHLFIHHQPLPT
T2 sequence (Q14994 151-348 isoform Q14994-2 limits assumed): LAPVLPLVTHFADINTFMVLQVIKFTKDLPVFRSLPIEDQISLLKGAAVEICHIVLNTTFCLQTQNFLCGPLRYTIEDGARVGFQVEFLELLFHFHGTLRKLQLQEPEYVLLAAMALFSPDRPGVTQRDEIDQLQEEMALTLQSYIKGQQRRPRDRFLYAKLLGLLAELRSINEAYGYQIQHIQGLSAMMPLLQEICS
Description: CAR LBD assembly assay (CAR AA). The class given is cell-based. As to conditions: na = no activity; tox = cytotoxicity in HepG2 cells. The text has this:
The CAR LBD assembly assay used constructs encoding helices 3–12 and helix 1 of human CAR LBD as described before. GL4.31[luc2P/GAL4UAS/Hygro] (pGAL4 UAS-luc) luciferase reporter vector and pRL-TK Renilla expression vector (Promega) were used in the assay in HepG2 cells transfected using Lipofectamine 3000.

Data set [6] addresses T3, human CAR LBD (Homo sapiens, UniProt Q14994).
T3 sequence (Q14994 103-352): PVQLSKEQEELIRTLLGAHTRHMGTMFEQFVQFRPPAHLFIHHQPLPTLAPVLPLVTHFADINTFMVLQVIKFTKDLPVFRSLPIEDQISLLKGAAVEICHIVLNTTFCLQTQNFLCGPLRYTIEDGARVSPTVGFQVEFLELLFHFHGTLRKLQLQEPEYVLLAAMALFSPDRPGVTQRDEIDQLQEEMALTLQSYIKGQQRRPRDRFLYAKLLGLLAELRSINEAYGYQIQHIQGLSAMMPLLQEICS
As to the kind of experiment: LanthaScreen TR-FRET CAR Coactivator assay. To be noted: nb = no binding. The class given is biochemical. As to the method:
We utilized the LanthaScreen TR-FRET CAR Coactivator Binding Assay Kit, goat (Thermo Fisher Scientific, Cat. No. PV4836), which includes GST-tagged human CAR LBD and a fluorescein-labeled PGC1α coactivator peptide. The assay was performed with slight modifications to the manufacturer’s protocol, as previously reported. […] The interaction with the PXR ligand-binding domain (LBD) was assessed using the LanthaScreen TR-FRET PXR Competitive Binding Assay (Thermo Fisher Scientific, PV4839), as previously described. This assay quantifies the ability of test compounds to displace a fluorescent PXR ligand from the receptor. Fluorescence readings were taken on a Synergy 2 Multi-Mode Microplate Reader (BioTek, Winooski, VT). The half-maximal inhibitory concentration (IC50) for PXR LBD was calculated from at least eight data points using GraphPad Prism software.
A general note: TR-FRET usually uses a lanthanide donor and a delayed reading to cut background.

Data set [7] in a line: Microsomal stability, mouse microsomes. The data set is classed as in vitro ADME. As to conditions: liver microsomes; for half-life at 5 μM: 0.5 mg/mL mouse microsomes, up to 45 min, read-out: Microsomal stability, t1/2 (min), mouse. As to the method: as §1
Data set [8] relates to PXR. Also noted: method as in not given. To be noted: ref not given, cited from earlier work.
The target in the next data set is T4, wild-type PXR LBD (Homo sapiens, UniProt O75469).
T4 construct: HepG2 cells were cotransfected with a GAL4-hPXR LBD construct and pSCR1-VP16 construct; expressed in transfected cells; host or cells: HepG2
T4 sequence (O75469 146-433 limits assumed): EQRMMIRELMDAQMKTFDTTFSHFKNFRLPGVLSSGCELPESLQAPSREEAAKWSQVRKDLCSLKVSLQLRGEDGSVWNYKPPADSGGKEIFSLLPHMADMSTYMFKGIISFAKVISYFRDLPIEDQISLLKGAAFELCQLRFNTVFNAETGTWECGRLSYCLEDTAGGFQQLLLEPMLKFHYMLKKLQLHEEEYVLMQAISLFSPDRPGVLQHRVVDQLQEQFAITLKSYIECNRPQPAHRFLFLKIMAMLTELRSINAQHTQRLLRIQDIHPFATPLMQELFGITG
Description: Mammalian two-hybrid assay, wt-PXR LBD with SRC-1-VP16 in HepG2. To be noted: MI891 at 10 μM. The data set is classed as cell-based. The text has this:
(§2) Additionally, the GAL4-PXR-LBD triple mutants (S247W/C284W/S208W) construct and wild-type GAL4-wtPXR vector were used for PXR LBD mutant functional two-hybrid assay as we described before. In the mammalian two-hybrid assay, HepG2 cells were cotransfected with a GAL4-hPXR LBD construct and pSCR1-VP16 construct. Renilla luciferase vector was used for the normalization of firefly luciferase activity to Renilla luciferase activity.

In data set [9] the target is T5, triple mutant (S208W/S247W/C284W) PXR LBD (Homo sapiens, UniProt O75469, C284W/S208W/S247W).
T5 construct: the GAL4-PXR-LBD triple mutants (S247W/C284W/S208W) construct; expressed in transfected cells; host or cells: HepG2
T5 sequence (O75469 146-433 S208W/S247W/C284W limits assumed): T4 sequence (O75469 146-433 limits assumed) with S63W, S102W, C139W
Description: Mammalian two-hybrid assay, obstructed triple mutant PXR LBD with SRC-1-VP16 in HepG2. The class given is cell-based.
Source text: as §2

The next data set relates to HepaRG cells. Description: RT-qPCR gene expression in differentiated HepaRG cells. As to conditions: 48 h. The data set is classed as cell-based, human. As to the method: HepaRG cells (Sigma-Aldrich/Merck) were cultivated and differentiated on 12-well plates. Seeded at 26,600 cells/cm^2, they were maintained in William’s medium with supplements. After 14 days, differentiation into hepatocyte-like cells was induced using 1.5% DMSO for another 14 days.
RT-qPCR was utilized to investigate gene expression in HepaRG and PHH. Total RNA was extracted from these cells using the phenol–chloroform method. The concentration of the isolated RNA was then measured using a Nanodrop 1000 spectro-photometer (Thermo Fisher Scientific).
Following RNA isolation, reverse transcription was performed to convert RNA into complementary DNA (cDNA). This step was carried out using the High-capacity cDNA reverse transcription kit (Cat. No. 4374966, ThermoFisher Scientific). The resulting cDNA served as the template for subsequent qPCR reactions.
The qPCR reactions were conducted on the QuantStudio 6 Flex Real-Time PCR System (ThermoFisher Scientific, Waltham, Mas-sachusetts). For these reactions, TaqMan Universal master mix II (Cat. No. 4440047, ThermoFisher Scientific) and TaqMan assays (FAM) utilized in this study are detailed in the Supporting Information. To quantify gene expression, the cycle threshold (Ct) values of the target genes were normalized to the Ct values of reference genes HPRT1 or GAPDH (HepaRG) or TBP (PHH). The normalized values were then expressed as fold changes (2−ΔΔCt) relative to the DMSO control at the specified time points, with the control set as 1.
On the technique in general: Quantitative PCR measures a nucleic acid by following its amplification.

Data set [10] relates to PXR. On the set-up: method as in not given. As to conditions: read-out: Ki printed beside SPA70 in Figure 6A; ref not given; cited from earlier work.

Take `NC(=O)c1cc(Cn2cc(-c3c(-c4ccc(Cl)cc4)nc4c(F)cccn34)nn2)ccc1Cl` [Compound 8, 2-Chloro-5-((4-(2-(4-chlorophenyl)-8-fluoroimidazo[1,2-a]pyridin-3-yl)-1H-1,2,3-triazol-1-yl)methyl)benzamide]: the half-life in data set [1] and in data set [3] was > 120 min each time. For the same compound, the half-life at 5 μM in data set [2] was determined as 50 ± 4 min; in data set [7], 8 min. The microsomal CLint at 5 μM was determined as 28 ± 2 µL/min/mg in data set [2] and 168 ± 8 µL/min/mg in [7] (mouse microsomes, read-out: Microsomal clearance CLint (μl/min/mg), mouse). On PXR [4], the half-maximal inhibitory concentration (IC50) was 12.4 ± 6 µM. Besides, the EC50 at human CAR LBD [5] is 4.14 ± 0.2 µM. Moreover, the “CAR TR-FRET (EC50, μM)” value on human CAR LBD [6] was “nb”.
Consider `NC(=O)c1cc(Cn2cc(-c3c(-c4ccc(Cl)cc4)nc4ccc(F)cn34)nn2)ccc1Cl` [Compound 10, 2-Chloro-5-((4-(2-(4-chlorophenyl)-6-fluoroimidazo[1,2-a]pyridin-3-yl)-1H-1,2,3-triazol-1-yl)methyl)benzamide], for which the half-life in data set [1] and in data set [3] was > 120 min each time. Further, the figures for the half-life at 5 μM in data set [2] and in data set [7] were 55 ± 9 min and > 45 min, respectively. In data set [2], the microsomal CLint at 5 μM is 26 ± 4 µL/min/mg. Further, on PXR [4], the IC50 was 6.46 ± 0.6 µM. The EC50 at human CAR LBD [5] was > 10 µM. Further, the “CAR TR-FRET (EC50, μM)” value on human CAR LBD [6] is reported as “nb”.
For `CCC[C@H](CC)Oc1ccc(C(=O)OC)cc1NC(=O)c1nnn(-c2cc(OC)ccc2OC)c1C` [SJPYT-331], the IC50 in the data set on PXR [8] (quoted in the Introduction, read-out: PXR antagonist IC50) is 0.0071 ± 0.0008 µM.
For `COc1ccc(OC)c(-n2nnc(S(=O)(=O)c3ccc(C(C)(C)C)cc3)c2C)c1` [SPA70, reference compound], the “effect on wt-PXR-LBD/SRC1-VP16 two-hybrid” value on wild-type PXR LBD is “activated the wild-type (wt) PXR LBD construct”. Also, the “activation of obstructed mutated PXR LBD two-hybrid” value in [9] was “Neither MI891 nor SPA70 activated the obstructed mutated PXR LBD”. Further, the CYP2B6 gene expression result with HepaRG cells (MI891 5 μM, SPA70 5 μM) is recorded as “downregulated”. Besides, the “CYP3A4 mRNA expression” value in the data set on HepaRG cells (alone or with rifampicin (5 μM), concentration-dependent) is recorded as “CYP3A4 mRNA suppression”. Besides, in the data set with PXR [10], the Ki is […]. Moreover, the IC50 with PXR [8] (read-out: IC50 printed beside SPA70 in Figure 6A) is […].
